Test results reported in ChEMBL document CHEMBL3124743, “Imaging evaluation of 5HT2C agonists, [(11)C]WAY-163909 and [(11)C]vabicaserin, formed by Pictet-Spengler cyclization” (J Med Chem, 2014).
Values belong to the molecule of their own block, whether it stands above or below them.

Columns and labels:
Brain [1] = test: Drug uptake in Sprague-Dawley rat assessed as retention time in brain at 0.303 mCi, iv by PET imaging; format: ADME, organism-based
Brain [2] = test: Drug uptake in Papio anubis assessed as retention time in brain at 2.33 mCi, iv by PET imaging; format: ADME, organism-based
[3] = Octanol-water partition coefficient, log D of the compound at pH 7.4; format: physicochemical
Brain [4] = test: Drug uptake in Sprague-Dawley rat in regions outside brain at 0.303 mCi, iv by PET imaging; format: ADME, organism-based; settings: in vivo
Brain [5] = test: Drug uptake in Papio anubis assessed as maximal uptake in brain at 2.33 mCi, iv after 20 mins of injection by PET imaging; format: ADME, organism-based; settings: in vivo
[6] = Fraction unbound in Papio Anubis plasma at 2.33 mCi, iv by PET imaging; format: ADME, organism-based
Brain [7] = test: Drug uptake in Sprague-Dawley rat assessed as retention time in brain at 0.99 mCi, iv by PET imaging; format: ADME, organism-based
[8] = molecular target: T1, 5-hydroxytryptamine receptor 2C (Homo sapiens, UniProt P28335); test: Displacement of [125I]DOI from human 5-HT2C receptor
T1 sequence (P28335 whole entry): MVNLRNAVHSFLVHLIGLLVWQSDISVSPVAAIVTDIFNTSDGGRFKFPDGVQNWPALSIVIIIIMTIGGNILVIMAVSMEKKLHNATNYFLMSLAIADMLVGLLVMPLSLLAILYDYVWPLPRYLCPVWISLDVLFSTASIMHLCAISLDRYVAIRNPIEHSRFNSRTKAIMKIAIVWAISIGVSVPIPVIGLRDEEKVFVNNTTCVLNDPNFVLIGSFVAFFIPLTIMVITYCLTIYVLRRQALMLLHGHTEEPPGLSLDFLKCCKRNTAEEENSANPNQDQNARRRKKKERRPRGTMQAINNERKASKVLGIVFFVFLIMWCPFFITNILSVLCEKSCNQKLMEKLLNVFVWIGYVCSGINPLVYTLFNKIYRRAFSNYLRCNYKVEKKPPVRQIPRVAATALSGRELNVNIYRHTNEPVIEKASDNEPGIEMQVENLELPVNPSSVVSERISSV

Retention_time (Brain [1]): 60 min
Retention_time (Brain [2]): 80 min
logD [3]: 1.53
Drug uptake (Brain [4]): Active
Drug uptake (Brain [5]): Active
fraction unbound [6]: 0.265
Compound: c1cc2c3c(c1)[C@H]1CCC[C@H]1N3CCN[11CH2]2

Retention_time (Brain [7]): 60 min
Compound: c1cc2c3c(c1)[C@H]1CCC[C@H]1CN3CCN[11CH2]2

Ki [8]: 3 nM
Compound: c1cc2c3c(c1)[C@H]1CCC[C@H]1CN3CCNC2 [VABICASERIN]
